Patent US7576057B2, “Cyclic peptides” (Scynexis, Inc., priority 2006, dated 2009)

Experiments:
[1] = test system: human T-lymphoblastoid cell line, CEM-SS; assay: Compound toxicity (MTS) in CEM-SS cells; format: cell-based
Protocol: Certain compounds of the present invention were also tested for antiretroviral activity against human immunodeficiency virus-1 (HIV) using infection of the human T-lymphoblastoid cell line, CEM-SS, with the HIV strain […] (Weislow et al., 1989, J. Natl. Cancer Inst. 81:577-586). In this MTS cytoprotection assay, each experiment included cell control wells (cells only), virus control wells (cells plus virus), drug toxicity wells (cells plus drug only), drug calorimetric control wells (drug only) as well as experimental wells (drug plus cells plus virus). Compounds were first dissolved in DMSO and tested using six half-log dilutions, starting with a high concentration of either 20 or 2 μM. HIV-1RF was added to each well in a volume of 50 μL, the amount of virus determined to give approximately 90% cell killing at 6 days post-infection. At assay termination, assay plates were stained with the soluble tetrazolium-based dye MTS (CellTiter 96 Reagent, Promega) to determine cell viability and quantify compound toxicity. MTS is metabolized by the mitochondria enzymes of metabolically active cells to yield a soluble formazan product, providing a quantitative analysis of cell viability and compound cytotoxicity. The assay was validated in parallel experiments using Zidovudine (3′-azido-3′-deoxythymidine or AZT) as a positive control. […]

[2] = test system: human hepatoma cell line ET (lub ubi neo/ET); assay: Cytotoxicity (colorimetric cell number assay) in the ET line; details: cytotoxicity versus antiviral activity
Protocol: The compounds were dissolved in DMSO at five half-log concentrations each, ranging from either 0.03 to 3 μM or 1 to 100 μM. Subconfluent cultures of the ET line were plated out into 96 well plates dedicated for the analysis of cell numbers (cytotoxicity) or antiviral activity and the next day the compounds were added to the appropriate wells. […] Compound EC50 and EC90 values were derived from HCV RNA levels assessed as HCV RNA replicon derived LUC activity. Cytotoxicity was expressed as IC50 and IC90, the concentration of compound that inhibited cell viability by 50% and 90%, respectively. Compound IC50 and IC90 values were calculated using a colorimetric assay as an indication of cell numbers and cytotoxicity. The activity of the LUC reporter is directly proportional to HCV RNA levels in the human cell line. The HCV-replicon assay was validated in parallel experiments using interferon-alpha-2b as a positive control. Cyclosporine was also tested by way of comparison.

SMILES | cytotoxicity at the concentrations that inhibit HIV [1] | safety margin (antiviral IC50 versus cytotoxicity EC50) [2]
C/C=C/C[C@@H](C)[C@@H](O)[C@H]1C(=O)N[C@@H](CC)C(=O)N(C)CC(=O)N(C)[C@@H](CC(C)C)C(=O)N[C@@H](C(C)C)C(=O)N(C)[C@@H](CC(C)C)C(=O)N[C@@H](C)C(=O)N[C@H](CCCCN(C)C)C(=O)N(C)[C@@H](CC(C)C)C(=O)N(C)[C@@H](CC(C)C)C(=O)N(C)[C@@H](C(C)C)C(=O)N1C [Compound 1, [(N,N-ε-Dimethyl)-D-lysyl]^8cyclosporine] | not cytotoxic | exhibited a safety margin
C/C=C/C[C@@H](C)[C@@H](O)[C@H]1C(=O)N[C@@H](CC)C(=O)N(C)CC(=O)N(C)[C@@H](CC(C)C)C(=O)N[C@@H](C(C)C)C(=O)N(C)[C@@H](CC(C)C)C(=O)N[C@@H](C)C(=O)N[C@H](CCCCN)C(=O)N(C)[C@@H](CC(C)C)C(=O)N(C)[C@@H](CC(C)C)C(=O)N(C)[C@@H](C(C)C)C(=O)N1C [Compound 2, [D-Lysyl]^8cyclosporine] |  | exhibited a safety margin
